Laboratory results from patent US10457707B2, “Substituted urea depsipeptide analogs as activators of the CLPP endopeptidase” (priority 2015, dated 2019).
Converted amounts (≈) assume the structure as drawn. Read-outs that look alike come from different tables or passages of the source. *1 amine or outer side, *2 acyl side, *3 side chain or, on linkers, in order; H or OH if unused. Where a SMILES comes first, the peptide text is derived from it. Bridges are numbered along the chain shown (N, C = ends). [ ]: non-standard residue; d: D form. The star is where a group is joined. ξ: configuration not given here. NH(1,3-benzodioxol-5-yl) = c1cc2c(cc1N*)OCO2; Phe(3,5-F2) = N[CH](Cc1cc(F)cc(F)c1)C(=O)O; X14 = O=C(C1CC(OP(=O)(O)O)CN1[*:1])[*:2]; Pro(4S-Me) = C[C@@H]1CN[C@H](C(=O)O)C1; Pro(4R-Me) = C[C@H]1CN[C@H](C(=O)O)C1; NH(3,4-Me2-phenyl) = Cc1ccc(N*)cc1C; NH(4-Me-phenyl) = Cc1ccc(N*)cc1; aThr = C[C@H](O)[C@H](N)C(=O)O; ξPro(4ξ-Me) = CC1CNC(C(=O)O)C1; Pip = O=C(O)[CH]1CCCCN1; X3 = Cn1ccc2ccc(N*)cc21; CO = O=C([*:1])[*:2]

Legend:
[1] = target: T1, Sa-ClpP (Staphylococcus aureus, UniProt Q2G036); test: ADEP displacement fluorescence polarization assay (FP probe ADEP 2591); assay type: binding
T1 construct: made in house; host or cells: E. coli BL21(DE3)
T1 sequence (Q2G036 1-195): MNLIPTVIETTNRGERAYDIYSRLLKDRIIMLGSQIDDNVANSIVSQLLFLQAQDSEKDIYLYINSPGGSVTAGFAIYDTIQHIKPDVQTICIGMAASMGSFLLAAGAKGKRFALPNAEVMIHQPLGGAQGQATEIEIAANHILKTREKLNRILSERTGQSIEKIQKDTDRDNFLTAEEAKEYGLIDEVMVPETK
Procedure: A fluorescence polarization (FP) assay was used to determine the activity of the disclosed compounds in displacing an ADEP analogue from ClpP. Briefly, the assay was performed in black 384 well, flat bottom, low volume plates (Greiner Bio-One, Monroe, N.C., catalog #784076). 20 μL of a pre-equilibrated (1 hr, room temperature) master mix (15 μM Sa-ClpP, 2% DMSO (v/v) and 50 nM FP probe in Tris*HCl, pH 8.0)) was pipetted into each well using a Well-Mate (Thermo Scientific, Waltham, Mass.). Sa-ClpP was prepared as described above for the ClpP activation assay. The FP probe was ADEP 2591 (structure shown above). The ADEP 2591 comprises a TAMRA fluorophore linked to a core based on modified ADEP 2378 via a short alkyl linker. Using pin transfer, approximately 0.4 μL (2% v/v DMSO) of each compound or control was added per well. After addition of compounds and controls, plates were allowed to incubate for an additional 120 minutes at room temperature. All assays were performed in triplicate. Polarization was monitored using an EnVision Multilabel reader (Perkin-Elmer, Waltham, Mass.) by exciting the FP probe at 530±25 nm, and monitoring fluorescence intensity of both parallel and perpendicular polarized light at 579±25 nm. Readout was in millipolarization units (mP).
Data collected was normalized to values obtained from positive (200 μM ADEP 2378) or negative (DMSO) controls. Curves were fit with non-linear regression using the equation “log [inhibitor] vs. Response-variable slope (four parameters)-symmetrical” in the program Prism 6 (GraphPad Software, La Jolla, Calif. USA, www.graphpad.com). The structures for ADEP 2378 and ADEP 2591 are shown above. ADEP 2378 is (E)-N—((S)-1-(((2R,6S,8aS,14aS,20S,23aS)-2,6-dimethyl-5,8,14,19,23-pentaoxooctadecahydro-1H,5H,14H,19H-pyrido[2,1-i]dipyrrolo[2,1-c:2′,1′-1][1]oxa[4,7,10,13]tetraazacyclohexadecin-20-yl)amino)-1-oxo-3-phenylpropan-2-yl)pent-2-enamide. ADEP 2591 is 5-(3-(3-((6S,9S,11aS,17S,20aS)-6,10-dimethyl-5,8,11,16,20-pentaoxo-17-((S)-2-((E)-pent-2-enamido)-3-phenylpropanamido)hexadecahydro-1H,5H,16H-dipyrrolo[2,1-c:2′,1′-1][1]oxa[4,7,10,13]tetraazacyclohexadecin-9-yl)propyl)thioureido)-2-(6-(dimethylamino)-3-(dimethyliminio)-3H-xanthen-9-yl)benzoate.

[2] = target: T1, Sa-ClpP; test: Sa-ClpP casein-BODIPY ClpP activation assay, method variant not marked in Table 5; assay type: biochemical, S. aureus
Procedure: The compounds were assayed in a casein digestion assay in order to determine their effect on ClpP activation. Briefly, the assay was carried out using S. aureus ClpP (“Sa-ClpP”) overexpressed in E. coli BL21(DE3) and purified in a two-step process. Purity of the protein was assessed through SDS PAGE analysis. EC50 evaluations were conducted in triplicate in a 20 μl assay format using a method adapted from Maurizi et al. (Methods Enzymol. (1994) 244:314-331). Each well contained 10 μM saClpP, 25 μg/ml BODIPY FL casein (Invitrogen Corporation, San Diego, Calif.), and test compound in concentrations ranging between 0-1000 μM in assay buffer (50 mM Tris pH 8, 200 mM KCl, and 1 mM TCEP). The reaction took place at 37° C. Fluorescence (excitation 485 nm; emission 528 nm) was measured in five minute intervals over a 45 min period using a BioTek HT fluorescence microplate reader (BioTek Instruments, Inc., Winooski, Vt.). Velocity of each reaction was calculated and data was fit to a dose response curve using GraphPad Prism® software (GraphPad Software, Inc., La Jolla, Calif.). EC50 is the effective concentration of compound which causes 50% activation of S. aureus ClpP in the foregoing BODIPY FL casein assay.
Alternatively, the assay was carried out using EnzCheck Protease Assay (Molecular Probes, Catalog # E6638). The assay was performed in black 384 well, flat bottom, low volume plates (Greiner Bio-One, Monroe, N.C., catalog #784076). 10 μL of Tris*HCl buffer, pH 8.0 with 0.01% Triton X-100 was pipetted into each well using a Well-Mate (Thermo Scientific, Waltham, Mass.). 0.4 μL test compounds or controls (2% DMSO v/v) were added to each well using a Biomek FX liquid handling robot (Beckman Coulter, Indianapolis Ind.). After addition of test compounds and controls, 10 μL of master mix containing 2 μM Sa-ClpP and 2 μM substrate (Bodipy-FL labeled casein) in Tris*HCl buffer, pH 8.0 with 0.01% (v/v) Triton X-100, was pipetted into each well. All assays were performed in triplicate, under linear velocity conditions. Increase in fluorescent signal following activation of Sa-ClpP by test compounds and controls was measured over time period of 30 mins using filters with excitation at 485±15 nm and emission at 520±25 nm on a PHERAstar FS Multilabel reader (BMG, Cary, N.C.). […] Data analysis was done by measuring rate of casein degradation over time (slopes). Computed degradation rates (slopes) were normalized to positive (ADEP4) or negative (DMSO) controls. Using nonlinear regression curve fitting EC50 values and % activation were determined using the equation “log [agonist] vs. Response-variable slope (four parameters)-symmetrical” in the program Prism 6 (GraphPad Software, La Jolla, Calif. USA, www.graphpad.com).
Substituted urea depsipetide analogs were synthesized as described above. The EC50 for ClpP activation was determined in the Sa-ClpP in casein-BODIPY assay as described above. The IC50 for ADEP displacement was determined in the ADEP displacement fluorescent polarization assay as described above; and the IC50 for growth inhibition was determined in the Vero cell cytotoxicity assay as described above. The compound number corresponds to the compound numbers used in Tables 1-4 and the experimental examples described above.

[3] = Cytotoxicity assay (CellTiter-Glo cell viability, 72 hours); assay type: cell-based; conditions: African green monkey
Procedure: Cytotoxicity was determined by determining the effect of compounds on cell viability. Vero (kidney epithelial cells; ATCC CCL-81) monolayers were trypsinized and 5000 cells/well were seeded (10-15% confluency) into white-wall, flat bottom 96 well microwell plates (Corning) using enriched Dulbecco's Modified Eagle's Medium (Hyclone:DMEM/High Glucose) containing 10% Fetal Bovine Serum (ATCC-30-2020). Plates were incubated overnight at 37° C. in the presence of 5% CO2. Drug-free media was then replaced with media containing serial dilutions of test compound or DMSO carrier. After an additional 72 hours of incubation, viability was indirectly measured using the CellTiter-Glo® Luminescent Cell Viability (Promega) assay. Assay plates were read at peak emission wavelength of 560 nm using a EnVision® Multilabel Plate Reader (Perkin Elmer) or PHERAstar FS Multilabel reader (BMG, Cary, N.C.). […] USA, www.graphpad.com]. For each experiment, compounds were tested in duplicate. IC50 values presented are the range of two biologically independent experiments.

[4] = system: Staphylococcus aureus, USA 300 wherein ClpP is inactivated; test: Minimal inhibitory concentration assay; assay type: cell-based
Method in brief: (§1)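 Antibacterial activity was measured by CLSI-standard microdilution in broth, using overnight aerobic incubation at 37 °C. Growth inhibition was scored visually, and MIC taken as the lowest concentration preventing growth.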

[5] = system: Enterococcus faecalis, ATCC 33186; test: Minimal inhibitory concentration assay (microbroth dilution); assay type: cell-based; conditions: Enterococcus faecalis, ATCC33186, read-out: Minimal Inhibitory Concentrations E. faecalis ATCC 33186
Method in brief: as §1

[6] = system: Staphylococcus aureus, ATCC 29213; test: as above; assay type: cell-based; conditions: ATCC29213, read-out: Minimal Inhibitory Concentrations S. aureus ATCC 29213
Method in brief: as §1

[7] = system: Staphylococcus aureus, NRS70; test: as above; assay type: cell-based; conditions: Staphylococcus aureus, NRS70, read-out: Minimal Inhibitory Concentrations S. aureus NRS70
Method in brief: as §1

[8] = system: Bacillus subtilis, ATCC 23857; test: as above; assay type: cell-based; conditions: Bacillus subtilis, ATCC23857, read-out: Minimal Inhibitory Concentrations B. subtilis ATCC 23857
Method in brief: as §1

[9] = system: Staphylococcus aureus, USA 300; test: Minimal inhibitory concentration assay; assay type: cell-based; conditions: USA300, read-out: Minimal Inhibitory Concentrations S. aureus USA 300
Method in brief: as §1

[10] = system: Streptococcus pyogenes, ATCC 700294; test: Minimal inhibitory concentration assay (microbroth dilution); assay type: cell-based; conditions: Streptococcus pyogenes, ATCC700294, read-out: Minimal Inhibitory Concentrations S. pyogenes ATCC 700294
Method in brief: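 CLSI broth microdilution: two-fold serial compound dilutions in appropriate broth, inoculated and incubated aerobically overnight at 37° C. MIC read visually as lowest concentration preventing bacterial growth.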

[11] = Vero cells, 72 hours, growth inhibition, read-out: Cytotoxicity IC50

Cc1ccc(NC(=O)NC(Cc2cc(F)cc(F)c2)C(=O)NC2C(=O)N3CC(OP(=O)(O)O)CC3C(=O)N3CCCCC3C(=O)NC(C)C(=O)N3CC(C)CC3C(=O)OC2C)cc1C [Compound 192, sodium (2R,6S,8aS,14aS,16R,20S,21S,23aS)-20-((S)-3-(3,5-difluorophenyl)-2-(3-(3,4-dimethylphenyl)ureido)propanamido)-2,6,21-trimethyl-5,8,14,19,23-pentaoxooctadecahydro-1H,5H,14H,19H-pyrido[2,1-i]dipyrrolo[2,1-c:2′,1′-l][1]oxa[4,7,10,13]tetraazacyclohexadecin-16-yl phosphate] ({NH(3,4-Me2-phenyl)-CO}-[Phe(3,5-F2)]T[X14][Pip]A[ξPro(4ξ-Me)]; ester 2-C; configuration not given here)
IC50 [1]: 7.37 ± 0.28 µM
EC50 [2]: 0.6 ± 0.02 µM

C[C@H]1C[C@H]2C(=O)O[C@@H](C)[C@H](NC(=O)[C@H](Cc3cc(F)cc(F)c3)NC(=O)Nc3ccc4c(c3)OCO4)C(=O)N3CCC[C@H]3C(=O)N3CCCC[C@H]3C(=O)N[C@@H](C)C(=O)N2C1 [Compound 196, (S)-2-(3-(benzo[d][1,3]dioxol-5-yl)ureido)-3-(3,5-difluorophenyl)-N-((2R,6S,8aS,14aS,20S,21S,23aS)-2,6,21-trimethyl-5,8,14,19,23-pentaoxooctadecahydro-1H,5H,14H,19H-pyrido[2,1-i]dipyrrolo[2,1-c:2′,1′-l][1]oxa[4,7,10,13]tetraazacyclohexadecin-20-yl)propanamide] ({NH(1,3-benzodioxol-5-yl)-CO}-[Phe(3,5-F2)][aThr]P[Pip]A[Pro(4S-Me)]; ester 2-C)
IC50 at 72 h [3]: 52.8 ± 4.9 µM

Cc1ccc(NC(=O)N[C@@H](Cc2cc(F)cc(F)c2)C(=O)N[C@@H]2C(=O)N3CCC[C@H]3C(=O)N3CCCC[C@H]3C(=O)N[C@@H](C)C(=O)N3C[C@@H](C)C[C@H]3C(=O)O[C@H]2C)cc1 [Compound 200, (S)-3-(3,5-difluorophenyl)-2-(3-(p-tolyl)ureido)-N-((2R,6S,8aS,14aS,20S,21S,23aS)-2,6,21-trimethyl-5,8,14,19,23-pentaoxooctadecahydro-1H,5H,14H,19H-pyrido[2,1-i]dipyrrolo[2,1-c:2′,1′-l][1]oxa[4,7,10,13]tetraazacyclohexadecin-20-yl)propanamide] ({NH(4-Me-phenyl)-CO}-[Phe(3,5-F2)][aThr]P[Pip]A[Pro(4S-Me)]; ester 2-C)
IC50 at 72 h [3, 11]: 26.7 ± 3.6 µM
Minimal Inhibitory Concentrations S. aureus USA 300 ΔClpP [4]: 100 µM

C[C@@H]1C[C@H]2C(=O)O[C@@H](C)[C@H](NC(=O)[C@H](Cc3cc(F)cc(F)c3)NC(=O)Nc3ccc4ccn(C)c4c3)C(=O)N3CCC[C@H]3C(=O)N3CCCC[C@H]3C(=O)N[C@@H](C)C(=O)N2C1 [Compound 306, (S)-3-(3,5-difluorophenyl)-2-(3-(1-methyl-1H-indol-6-yl)ureido)-N-((2R,6S,8aS,14aS,20S,21S,23aS)-2,6,21-trimethyl-5,8,14,19,23-pentaoxooctadecahydro-1H,5H,14H,19H-pyrido[2,1-i]dipyrrolo[2,1-c:2′,1′-l][1]oxa[4,7,10,13]tetraazacyclohexadecin-20-yl)propanamide] ({X3-CO}-[Phe(3,5-F2)][aThr]P[Pip]A[Pro(4R-Me)]; ester 2-C)
MIC [5]: 0.039 µM (≈ 0.033 µg/mL)
MIC [6]: 0.156 µM (≈ 0.132 µg/mL)
MIC [7]: 0.078 µM (≈ 0.0661 µg/mL)
MIC [8]: 0.078 µM (≈ 0.0661 µg/mL)
IC50 at 72 h [3, 11]: 11.8 ± 0.8 µM
Minimal Inhibitory Concentrations S. aureus USA 300 ΔClpP [4]: >20 µM
MIC [9]: 0.156 µM (≈ 0.132 µg/mL)
MIC [10]: 0.313 µM (≈ 0.265 µg/mL)
